Holding throughout (assay type): cell-based, human
Series [1] relates to HepaRG cells. Put plainly: Neutral red uptake (NRU) cytotoxicity assay. The conditions noted are these: 72 h, tested concentration range. How it is done:
(§1) Wild-type human hepatoma HepaRG cells obtained from Biopredic International (Saint Grégoire, France) were cultivated for 4 weeks in a Binder cell culture incubator maintained at 37 °C in a 5% humidified atmosphere with 5% CO2 before they were employed in this study. The 4 weeks consisted of 2 weeks of proliferation and 2 weeks of differentiation. […]
(§2) Cytotoxicity assays were performed in 96-well plates at a density of 9000 cells per well, and test compounds were incubated for 72 h. […] After the 30-min incubation with WST-1, absorbance was measured at 450 nm corrected by a reference at 620 nm (λexc = 450 nm/λemi = 620 nm) using an Infinite M200 PRO plate reader (Tecan; Männedorf, Switzerland). […] The absorbed dye was quantified by fluorescence measurement (λexc = 530 nm/λemi = 645 nm) on an Infinite M200 PRO plate reader (Tecan; Männedorf, Switzerland). Background corrected viability values of both assays were expressed as a percentage of untreated cells. […] Means and standard deviations for each treatment were calculated. […]

Series [2] relates to HepaRG cells. Put plainly: WST-1 cytotoxicity assay. The conditions noted are these: WST-1 assay, 72 h incubation. The procedure: as §1, §2
(Tetrazolium dyes change colour on reduction, which living cells bring about.)

Series [3] deals with HepaRG cells. Kind of series: AdipoRed triglyceride accumulation assay. To be noted: for Relative triglyceride accumulation: related to medium control. How it is done: Different elements of the liver steatosis AOP were evaluated in this study. Transcriptomics was employed as a tool to investigate the expression of liver steatosis-related genes that occur either as MIE (genes related to NR activation) or molecular and cellular KEs. In addition to gene expression, lipid accumulation in HepaRG cells was conducted to cover molecular KEs. Considering that upstream MIEs occur earlier than subsequent downstream KEs (Alarcan et al. [2021]), we applied different time points (24 h for transcriptomics and 72 h for lipid accumulation) to reflect the temporal relationships between biological events.
HepaRG cells were treated in 96-well plates for 72 h with eight different concentrations of the above-mentioned test compounds, with the highest concentration of each being the highest non-cytotoxic concentration. The synthetic LXR and FXR agonist, T0901317, was used as a positive control at a concentration of 10 µM. After the 72-h incubation, cells were washed with 200 µL phosphate-buffered saline (PBS), and then 200 µL PBS containing 5 µg/mL Hoechst 33,342 (Thermo Fisher Scientific; Waltham, Massachusetts, USA) was added to each well. Thereafter, 5 µL of the AdipoRed reagent was added to each well, and the plates were incubated at 37 °C for 10 min. Subsequently, the fluorescence of AdipoRed was measured at λexc = 485 nm/λemi = 572 nm, and Hoechst 33,342 was measured at λexc = 350 nm/λemi = 451 nm on the Infinite M200 PRO plate reader (Tecan; Männedorf, Switzerland). AdipoRed signals were normalized to Hoechst 33,342 signals to compensate for variations in cell number. Relative triglyceride levels were referred to untreated cells. Each concentration was measured in three technical replicates. Three independent biological replicates were performed (n = 3) and means as well as SD were calculated.
A linear mixed-effects ANOVA (α = 0.05) described by Pinheiro and Bates ([2000]) followed by a post-hoc Dunnett test for multiple comparisons of treatment groups versus the control was used for statistical analysis of data from cytotoxicity assay, AdipoRed assay, CYP450 inhibition assay as well as mixture effects. R studio (ver. 4.4.1) was used to determine the effective concentration at relative triglyceride induction fold of 1.5 for each test compound.

With `C#CCOc1ccc(CCNC(=O)C(OCC#C)c2ccc(Cl)cc2)cc1OC` (centres unmarked) [MDP, mandipropamid], in the series on HepaRG cells [1], the cytotoxicity result is given as “not cytotoxic in the tested concentration range”. The compound also displayed an EC50 for cytotoxicity with HepaRG cells [2] of 245 µg/mL. Besides, the Relative triglyceride accumulation was 1.2 in the series with HepaRG cells [3] (5.00 mg/L, 72 h); 1.1 in the series on HepaRG cells [3] (6.00 mg/L, 72 h); 1.3 in the series on HepaRG cells [3] (8.00 mg/L, 72 h); 1.3 with HepaRG cells [3] (10.0 mg/L, 72 h); 1.2 in the series with HepaRG cells [3] (12.0 mg/L, 72 h); 1.6 in the series with HepaRG cells [3] (15.0 mg/L, 72 h). Further, in the series on HepaRG cells [3] (19.0 mg/L, 72 h), the Relative triglyceride accumulation stood at 1.8. Besides, in the series on HepaRG cells [3] (HepaRG cells, 72-h incubation), the “EC1.5-fold (effective concentration at 1.5 relative triglyceride induction fold)” value is 14.4 mg/L. The EC1.5-fold result in the series on HepaRG cells [3] (HepaRG cells, 72 h) is listed as “≈ 35 µM”.

The record behind these values is paper PMC12367838, “Relevance of kinetic interactions and co-formulants for plant protection product liver toxicity in vitro” (Archives of Toxicology, 2025).
